The conditions of series [1]: dog, in vivo. The protocol: In 6 other animals, 1.6 mg of NIPA-M (twice the amount of NIPA-M incorporated into one trans-coronary delivery) was directly injected into the left ventricle. NIPA-M used in these experiments was not incorporated into the hydrogel in order to simulate the greatest possible toxic challenge should the total NIPA-M dose be released instantly into the circulation from trans-coronary infusion. Serum samples before and 9.7±0.3 hours after NIPA-M injection were collected for paired analysis to assess renal and hepatic toxicity.

For series [2] the following is noted: in vivo; cited from earlier work.
The test system of series [3] is neurons. Conditions: cited from earlier work.
Series [4] has as its system neurotransmitter release at the synapse. Conditions: cited from earlier work.

For the compound `C=CC(=O)NC(C)C` [NIPA-M, N-isopropyl acrylamide monomer], in series [1], the BUN/creatine ratio is recorded as 17.6±1.7, the “alanine aminotransferase (ALT)” value was determined as 41.3±8.7 U/L, the “blood urea nitrogen (BUN)” value is 16.2 ± 2.9 mmol/L and the serum creatinine is 0.9 ± 0.1 mmol/L. In series [2], the “neuropathy following prolonged oral exposure” value was “induce clinical (ataxia, rotorod performance deficits) and morphological (tibial nerve degeneration) signs of neuropathy”. Besides, the “LD50% to kill 50% neurons” value in series [3] was 5 to 8 mM.

On to botulinum toxin-A [BtA], for which, in series [4], the “duration of inhibition of neurotransmitter release at the synapse” value was 3-6 months.

These data come from patent publication US8740872B2, “Magnetically-targeted treatment for cardiac disorders” (The Board of Regents of the University of Oklahoma, priority 2010, dated 2014).
